Data on seven compounds can be found in patent publication US8835462B2, “Macrocyclic picolinamides as fungicides” (Dow AgroSciences LLC, priority 2012, dated 2014).

What all share (type): in vivo
The subject of one test is Cercospora beticola. The test is described as follows: Leaf spot of sugar beets (CERCBE) fungicidal activity. To be noted: 24 h, 1 Day Protectant, sugar beet, read-out: Disease Control CERCBE 1DP. As for the experimental part: Technical grades of materials were dissolved in acetone, which were then mixed with nine volumes of water containing 110 ppm Triton X-100. The fungicide solutions were applied onto wheat seedlings using an automated booth sprayer to run-off. All sprayed plants were allowed to air dry prior to further handling. Wheat plants (variety Yuma) were grown from seed in a greenhouse in 50% mineral soil/50% soil-less Metro mix until the first leaf was fully emerged, with 7-10 seedlings per pot. These plants were inoculated with an aqueous spore suspension of Septoria tritici either prior to or after fungicide treatments. After inoculation the plants were kept in 100% relative humidity (one day in a dark dew chamber followed by two to three days in a lighted dew chamber at 20° C.) to permit spores to germinate and infect the leaf. The plants were then transferred to a greenhouse set at 20° C. for disease to develop. When disease symptoms were fully expressed on the 1st leaves of untreated plants, infection levels were assessed on a scale of 0 to 100 percent disease severity. Percent disease control was calculated using the ratio of disease severity on treated plants relative to untreated plants. Evaluation of Fungicidal Activity: Leaf Spot of Sugar Beets (Cercospora Beticola; Bayer Code CERCBE) Sugar beet plants (variety HH88) were grown in soil-less Metro mix and trimmed regularly to maintain an uniform plant size prior to test. Plants were inoculated with a spore suspension 24 hr after fungicide treatments. Inoculated plants were kept in a dew chamber at 22° C. for 48 hr then incubated in a greenhouse set at 24° C. under a clear plastic hood with bottom ventilation until disease symptoms were fully expressed. Fungicide formulation, application and disease assessment on the sprayed leaves followed the procedures as described in the Example A.

Test [1] relates to Blumeria graminis f. sp. hordei. Description: Barley powdery mildew (ERYSGH) fungicidal activity. To be noted: 24 h, 1 Day Protectant, read-out: Disease Control ERYSGH 1DP. As for the experimental part:
Technical grades of materials were dissolved in acetone, which were then mixed with nine volumes of water containing 110 ppm Triton X-100. The fungicide solutions were applied onto wheat seedlings using an automated booth sprayer to run-off. All sprayed plants were allowed to air dry prior to further handling. Wheat plants (variety Yuma) were grown from seed in a greenhouse in 50% mineral soil/50% soil-less Metro mix until the first leaf was fully emerged, with 7-10 seedlings per pot. These plants were inoculated with an aqueous spore suspension of Septoria tritici either prior to or after fungicide treatments. After inoculation the plants were kept in 100% relative humidity (one day in a dark dew chamber followed by two to three days in a lighted dew chamber at 20° C.) to permit spores to germinate and infect the leaf. The plants were then transferred to a greenhouse set at 20° C. for disease to develop. When disease symptoms were fully expressed on the 1st leaves of untreated plants, infection levels were assessed on a scale of 0 to 100 percent disease severity. Percent disease control was calculated using the ratio of disease severity on treated plants relative to untreated plants. Evaluation of Fungicidal Activity: Barley Powdery Mildew (Blumeria Graminis f. sp. Hordei; Synonym: Erysiphe Graminis f. sp. Hordei; Bayer Code […]) Barley seedlings (variety Harrington) were propagated in soil-less Metro mix, with each pot having 8 to 12 plants, and used in the test when first leaf was fully emerged. Test plants were inoculated by dusting with infected stock plants 24 hr after fungicide treatments. After inoculation the plants were kept in a greenhouse set at 20° C. for disease to develop. Fungicide formulation, application and disease assessment on the sprayed leaves followed the procedures as described in the Example A.

A further test has as its system Leptosphaeria nodorum. Description: Wheat glume blotch (LEPTNO) fungicidal activity. As to conditions: Parastagonospora nodorum, 24 h, 1 Day Protectant, read-out: Disease Control LEPTNO 1DP. The method, then: Technical grades of materials were dissolved in acetone, which were then mixed with nine volumes of water containing 110 ppm Triton X-100. The fungicide solutions were applied onto wheat seedlings using an automated booth sprayer to run-off. All sprayed plants were allowed to air dry prior to further handling. Wheat plants (variety Yuma) were grown from seed in a greenhouse in 50% mineral soil/50% soil-less Metro mix until the first leaf was fully emerged, with 7-10 seedlings per pot. These plants were inoculated with an aqueous spore suspension of Septoria tritici either prior to or after fungicide treatments. After inoculation the plants were kept in 100% relative humidity (one day in a dark dew chamber followed by two to three days in a lighted dew chamber at 20° C.) to permit spores to germinate and infect the leaf. The plants were then transferred to a greenhouse set at 20° C. for disease to develop. When disease symptoms were fully expressed on the 1st leaves of untreated plants, infection levels were assessed on a scale of 0 to 100 percent disease severity. Percent disease control was calculated using the ratio of disease severity on treated plants relative to untreated plants. Evaluation of Fungicidal Activity: Wheat Glume Blotch (Leptosphaeria Nodorum; Bayer Code […]) Wheat plants (variety Yuma) were grown from seed in a greenhouse in 50% mineral soil/50% soil-less Metro mix until the first leaf was fully emerged, with 7-10 seedlings per pot. These plants were inoculated with an aqueous spore suspension of Leptosphaeria nodorum 24 hr after fungicide treatments. After inoculation the plants were kept in 100% relative humidity (one day in a dark dew chamber followed by two days in a lighted dew chamber at 20° C.) to permit spores to germinate and infect the leaf. The plants were then transferred to a greenhouse set at 20° C. for disease to develop. Fungicide formulation, application and disease assessment followed the procedures as described in the Example A.

A further test relates to Puccinia triticina. Description: Fungicide mobility (dropline mobility test), wheat brown rust (PUCCRT). As to conditions: 1 ug/leaf, disease-free zone as percent of distance from marked line to leaf tip; for Dropline Mobility Test PUCCRT 1 DPM: 1 Day Protectant Mobility; for Dropline Mobility Test PUCCRT 3 DCM: 3 Day Curative Mobility. The essentials:
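Yuma wheat primary leaves, held horizontal, got a 2 μl drop of EC-formulated compound in water with 110 ppm Triton X-100 on a line 5 cm from the tip; 6 replicates. Inoculation 1 day after or 3 days before application. Acropetal disease-free zone measured as percent of line-to-tip distance once control rust fully expressed.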

With `COc1ccnc(C(=O)N[C@H]2COC[C@H](Cc3ccccc3)[C@@H](OCCCC(F)(F)F)[C@H](C)OC2=O)c1OCOC(C)=O` [Compound 23], the pest or weed control at 100 ppm (in the test with Cercospora beticola; in test [1]; with Leptosphaeria nodorum) was 80 to 100% in each case. Besides, in the test with Puccinia triticina, the “Dropline Mobility Test PUCCRT 1 DPM” value was “B (More than 0-Less than 80)”. The “Dropline Mobility Test PUCCRT 3 DCM” value in the test with Puccinia triticina is “B (More than 0-Less than 80)”.
`CCCCCO[C@@H]1[C@@H](Cc2ccccc2)COC[C@H](NC(=O)c2nccc(OC)c2OCOC(C)=O)C(=O)O[C@H]1C` [Compound 26]: the pest or weed control at 100 ppm (in the test with Cercospora beticola; in test [1]; with Leptosphaeria nodorum) was 80 to 100% in each case. Further, the “Dropline Mobility Test PUCCRT 1 DPM” value in the test with Puccinia triticina is “B (More than 0-Less than 80)”. The “Dropline Mobility Test PUCCRT 3 DCM” value with Puccinia triticina is on record as “B (More than 0-Less than 80)”.
Take `COc1ccnc(C(=O)N[C@H]2COC[C@H](Cc3ccccc3)[C@@H](OCCCc3ccccc3)[C@H](C)OC2=O)c1OCOC(C)=O` [Compound 34]: the pest or weed control at 100 ppm (in the test on Cercospora beticola; in test [1]; with Leptosphaeria nodorum) was 80 to 100% in each case. Further, the “Dropline Mobility Test PUCCRT 1 DPM” value in the test on Puccinia triticina is “B (More than 0-Less than 80)”.
In the case of `COC(=O)/C=C/O[C@@H]1[C@@H](Cc2ccccc2)COC[C@H](NC(=O)c2nccc(OC)c2OCOC(C)=O)C(=O)O[C@H]1C` [Compound 36], the pest or weed control at 100 ppm in the test with Cercospora beticola lay within 0 to 80%; in test [1], 80 to 100%; in the test with Leptosphaeria nodorum, 80 to 100%. In the test on Puccinia triticina, the “Dropline Mobility Test PUCCRT 1 DPM” value is given as “B (More than 0-Less than 80)”. In addition, the “Dropline Mobility Test PUCCRT 3 DCM” value in the test on Puccinia triticina was “B (More than 0-Less than 80)”.
Consider `COc1ccnc(C(=O)N[C@H]2COC[C@H](Cc3ccccc3)[C@@H](OC(=O)c3ccccc3)[C@H](C)OC2=O)c1OCOC(C)=O` [Compound 37], for which the figures for the pest or weed control at 100 ppm (with Cercospora beticola; in test [1]; with Leptosphaeria nodorum) were 80 to 100%, 0 to 80% and 80 to 100%, respectively. In addition, in the test with Puccinia triticina, the “Dropline Mobility Test PUCCRT 1 DPM” value was “B (More than 0-Less than 80)”.
`COc1ccnc(C(=O)N[C@H]2COC[C@H](Cc3ccccc3)[C@@H](OC(=O)C3CC3)[C@H](C)OC2=O)c1OCOC(C)=O` [Compound 38]: the pest or weed control at 100 ppm (in the test on Cercospora beticola; in test [1]; in the test on Leptosphaeria nodorum) was 80 to 100% each time. Also, in the test on Puccinia triticina, the “Dropline Mobility Test PUCCRT 1 DPM” value was “B (More than 0-Less than 80)”. Besides, in the test on Puccinia triticina, the “Dropline Mobility Test PUCCRT 3 DCM” value is “B (More than 0-Less than 80)”.
Regarding `COc1ccnc(C(=O)N[C@H]2COC[C@H](Cc3ccccc3)[C@@H](OC)[C@H](C)OC2=O)c1OCOC(C)=O` [Compound 39], the pest or weed control at 100 ppm in the test with Cercospora beticola was in the range of 0 to 80%; in test [1], 0 to 80%; in the test on Leptosphaeria nodorum, 80 to 100%. Also, the “Dropline Mobility Test PUCCRT 1 DPM” value in the test on Puccinia triticina is on record as “A (80-100)”. Further, the “Dropline Mobility Test PUCCRT 3 DCM” value in the test on Puccinia triticina is given as “A (80-100)”.
